Results reported in patent EP4707280A1, “1,4-CINEOLE DERIVATIVE AND INTERMEDIATE THEREOF, HERBICIDE CONTAINING SAID DERIVATIVE AS ACTIVE INGREDIENT, METHOD FOR USING HERBICIDE, AND METHOD FOR PREPARING AGROCHEMICAL COMPOSITION” (HOKKO CHEMICAL INDUSTRY CO., LTD., priority 2023, dated 2024).

Legend:
Format in all cases: in vivo
[1] = test system: Echinochloa crus-galli var. formosensis; experiment: Test Example 1: herbicidal effect test by soil application in paddy rice; details: Echinochloa crus-galli, soil, 336 h; 120 g active ingredient per 10 ares; applied immediately after sowing, flooded pots; 14 days after application; read-out: weed inhibition rate
Method in brief: (§1)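 Treatment: 120 g active ingredient per 10 ares as a water-diluted emulsifiable concentrate, dropped onto flooded pots immediately after sowing. Thirty seeds per species went 0–1 cm into puddled paddy soil with 16:16:16 fertilizer, with ~3 cm flooding maintained in a glass greenhouse.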

Scirpus juncoides [2] = experiment: as above; details: Schoenoplectiella juncoides, soil, 336 h; 120 g active ingredient per 10 ares; applied immediately after sowing, flooded pots; 14 days after application; read-out: weed inhibition rate
Method in brief: as §1

Monochoria vaginalis [3] = experiment: as above; details: Pontederia vaginalis, soil, 336 h; 120 g active ingredient per 10 ares; applied immediately after sowing, flooded pots; 14 days after application; read-out: weed inhibition rate
Method in brief: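 Inhibition rate (%) read 14 days after treatment, duplicate pots. Water-diluted emulsifiable concentrate was applied by dropper at 120 g active ingredient/10 ares right after sowing. Seeds (30 per species, 0–1 cm deep) went into puddled paddy soil kept flooded at about 3 cm in a greenhouse.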

[4] = test system: Echinochloa crus-galli var. formosensis; experiment: Test Example 2: herbicidal effect test by application during growth period of paddy rice; details: Echinochloa crus-galli; 120 g per 10 ares; applied seven days after sowing, flooded pots; 14 days after application; read-out: weed inhibition rate
Method in brief: (§2)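 Herbicidal effect was scored 14 days after treatment, in duplicate per concentration. Weeds sown 0–1 cm deep in puddled, fertilized paddy soil under about 3 cm of standing water received a water-diluted emulsifiable concentrate by dropper 7 days post-sowing, at 120 g a.i. per 10 ares.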

Monochoria vaginalis [5] = experiment: as above; details: Pontederia vaginalis; 120 g per 10 ares; applied seven days after sowing, flooded pots; 14 days after application; read-out: weed inhibition rate
Method in brief: as §2

Scirpus juncoides [6] = experiment: as above; details: Schoenoplectiella juncoides; 120 g per 10 ares; applied seven days after sowing, flooded pots; 14 days after application; read-out: weed inhibition rate
Method in brief: as §2

Digitaria ciliaris [7] = experiment: Test Example 4: herbicidal effect test by stem and leaf treatment in upland field; details: Digitaria ciliaris; 120 g per 10 ares; sprayed seven days after sowing, upland soil; 14 days after application; read-out: weed inhibition rate
Monochoria vaginalis [8] = experiment: Test Example 5: herbicidal effect test by soil application in paddy rice (low dose); details: Pontederia vaginalis, 336 h, 7.5 g per 10 ares, applied immediately after sowing, flooded pots, 14 days after application, read-out: weed inhibition rate
Method in brief: (§3)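 Dose of 7.5 g a.i. per 10 ares, applied by dropper as diluted emulsifiable concentrate to flooded (~3 cm) paddy pots immediately after sowing seeds at 0–1 cm. Kept in a glass greenhouse; duplicate pots rated at 14 days post-application.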

Scirpus juncoides [9] = experiment: as above; details: Schoenoplectiella juncoides, 336 h, 7.5 g per 10 ares, applied immediately after sowing, flooded pots, 14 days after application, read-out: weed inhibition rate
Method in brief: as §3

Digitaria ciliaris [10] = experiment: Test Example 8: herbicidal effect test by stem and leaf treatment in upland field (low dose); details: Digitaria ciliaris; 7.5 g per 10 ares; sprayed seven days after sowing, upland soil; 14 days after application; read-out: weed inhibition rate
Echinochloa crus-galli = experiment: as above; details: Echinochloa crus-galli; 7.5 g per 10 ares; sprayed seven days after sowing, upland soil; 14 days after application; read-out: weed inhibition rate

CC(C)[C@]12C[C@@H](OCc3ccccc3Br)[C@](C)(CC1=O)O2 [2-13, (1R,4S,5R)-5-((2-bromobenzyl)oxy)-1-isopropyl-4-methyl-7-oxabicyclo[2.2.1]heptan-2-one]
≥ 80%: pest or weed control at 1200 g/ha [1] | pest or weed control at 1200 g/ha (Scirpus juncoides [2]) | pest or weed control at 1200 g/ha (Monochoria vaginalis [3]) | inhibition at 1200 g/ha [4] | inhibition at 1200 g/ha (Monochoria vaginalis [5]) | inhibition at 1200 g/ha (Scirpus juncoides [6]) | inhibition at 1200 g/ha (Digitaria ciliaris [7]) | inhibition at 75 g/ha (Monochoria vaginalis [8]) | inhibition at 75 g/ha (Scirpus juncoides [9]) | inhibition at 75 g/ha (Digitaria ciliaris [10]) | inhibition at 75 g/ha (Echinochloa crus-galli)

CC(C)[C@]12C[C@@H](OCc3c(F)cccc3Br)[C@](C)(CC1=O)O2 [2-355, (1R,4S,5R)-5-((2-bromo-6-fluorobenzyl)oxy)-1-isopropyl-4-methyl-7-oxabicyclo[2.2.1]heptan-2-one]
≥ 80%: pest or weed control at 1200 g/ha [1] | pest or weed control at 1200 g/ha (Scirpus juncoides [2]) | pest or weed control at 1200 g/ha (Monochoria vaginalis [3]) | inhibition at 1200 g/ha [4] | inhibition at 1200 g/ha (Monochoria vaginalis [5]) | inhibition at 1200 g/ha (Scirpus juncoides [6]) | inhibition at 1200 g/ha (Digitaria ciliaris [7]) | inhibition at 75 g/ha (Monochoria vaginalis [8]) | inhibition at 75 g/ha (Scirpus juncoides [9]) | inhibition at 75 g/ha (Digitaria ciliaris [10]) | inhibition at 75 g/ha (Echinochloa crus-galli)

Cc1ccccc1CO[C@@H]1C[C@]2(C(C)C)O[C@@]1(C)CC2C (stereo partly drawn) [1-83, (1S,2R,4R)-4-isopropyl-1,5-dimethyl-2-((2-methylbenzyl)oxy)-7-oxabicyclo[2.2.1]heptane]
≥ 80%: pest or weed control at 1200 g/ha [1] | pest or weed control at 1200 g/ha (Scirpus juncoides [2]) | pest or weed control at 1200 g/ha (Monochoria vaginalis [3]) | inhibition at 1200 g/ha [4] | inhibition at 1200 g/ha (Monochoria vaginalis [5]) | inhibition at 1200 g/ha (Scirpus juncoides [6]) | inhibition at 1200 g/ha (Digitaria ciliaris [7]) | inhibition at 75 g/ha (Monochoria vaginalis [8]) | inhibition at 75 g/ha (Scirpus juncoides [9]) | inhibition at 75 g/ha (Digitaria ciliaris [10]) | inhibition at 75 g/ha (Echinochloa crus-galli)

CC(C)[C@]12C[C@@H](OCc3ccccc3F)[C@](C)(C[C@H]1C)O2 [1-94, (1S,2R,4R,5R)-2-[(2-fluorophenyl)methoxy]-1,5-dimethyl-4-isopropyl-7-oxabicyclo[2.2.1]heptane]
≥ 80%: pest or weed control at 1200 g/ha [1] | pest or weed control at 1200 g/ha (Scirpus juncoides [2]) | pest or weed control at 1200 g/ha (Monochoria vaginalis [3]) | inhibition at 1200 g/ha [4] | inhibition at 1200 g/ha (Monochoria vaginalis [5]) | inhibition at 1200 g/ha (Digitaria ciliaris [7]) | inhibition at 75 g/ha (Monochoria vaginalis [8]) | inhibition at 75 g/ha (Scirpus juncoides [9]) | inhibition at 75 g/ha (Digitaria ciliaris [10]) | inhibition at 75 g/ha (Echinochloa crus-galli)

CC(C)[C@]12C=C[C@](C)(O1)[C@H](OCc1ccccc1)C2 [3-1, (1R,4S,5R)-4-methyl-5-phenylmethoxy-1-isopropyl-7-oxabicyclo[2.2.1]hept-2-ene]
≥ 80%: pest or weed control at 1200 g/ha [1] | pest or weed control at 1200 g/ha (Scirpus juncoides [2]) | pest or weed control at 1200 g/ha (Monochoria vaginalis [3]) | inhibition at 1200 g/ha [4] | inhibition at 1200 g/ha (Monochoria vaginalis [5]) | inhibition at 1200 g/ha (Scirpus juncoides [6]) | inhibition at 1200 g/ha (Digitaria ciliaris [7]) | inhibition at 75 g/ha (Monochoria vaginalis [8]) | inhibition at 75 g/ha (Scirpus juncoides [9]) | inhibition at 75 g/ha (Digitaria ciliaris [10]) | inhibition at 75 g/ha (Echinochloa crus-galli)

C=C1C[C@]2(C)O[C@@]1(C(C)C)C[C@H]2OCc1ccccc1F [2-88, (1R,4S,5R)-5-((2-fluorobenzyl)oxy)-1-isopropyl-4-methyl-2-methylene-7-oxabicyclo[2.2.1]heptane]
≥ 80%: pest or weed control at 1200 g/ha [1] | pest or weed control at 1200 g/ha (Scirpus juncoides [2]) | pest or weed control at 1200 g/ha (Monochoria vaginalis [3]) | inhibition at 1200 g/ha [4] | inhibition at 1200 g/ha (Monochoria vaginalis [5]) | inhibition at 1200 g/ha (Scirpus juncoides [6]) | inhibition at 1200 g/ha (Digitaria ciliaris [7]) | inhibition at 75 g/ha (Monochoria vaginalis [8]) | inhibition at 75 g/ha (Scirpus juncoides [9]) | inhibition at 75 g/ha (Digitaria ciliaris [10]) | inhibition at 75 g/ha (Echinochloa crus-galli)

Cc1ccccc1CO[C@@H]1C[C@]2(C(C)C)O[C@@]1(C)C[C@@H]2O [1-24, (1R,2S,4S,5R)-1-isopropyl-4-methyl-5-((2-methylbenzyl)oxy)-7-oxabicyclo[2.2.1]heptan-2-ol]
≥ 80%: pest or weed control at 1200 g/ha [1] | pest or weed control at 1200 g/ha (Scirpus juncoides [2]) | pest or weed control at 1200 g/ha (Monochoria vaginalis [3]) | inhibition at 1200 g/ha [4] | inhibition at 1200 g/ha (Monochoria vaginalis [5]) | inhibition at 1200 g/ha (Scirpus juncoides [6]) | inhibition at 1200 g/ha (Digitaria ciliaris [7]) | inhibition at 75 g/ha (Monochoria vaginalis [8]) | inhibition at 75 g/ha (Scirpus juncoides [9]) | inhibition at 75 g/ha (Digitaria ciliaris [10]) | inhibition at 75 g/ha (Echinochloa crus-galli)

CC(C)[C@]12C[C@@H](OCc3cccc(F)c3)[C@](C)(CC1=O)O2 [2-351, (1R,4S,5R)-5-((3-fluorobenzyl)oxy)-1-isopropyl-4-methyl-7-oxabicyclo[2.2.1]heptan-2-one]
≥ 80%: pest or weed control at 1200 g/ha [1] | pest or weed control at 1200 g/ha (Scirpus juncoides [2]) | pest or weed control at 1200 g/ha (Monochoria vaginalis [3]) | inhibition at 1200 g/ha [4] | inhibition at 1200 g/ha (Monochoria vaginalis [5]) | inhibition at 1200 g/ha (Scirpus juncoides [6]) | inhibition at 1200 g/ha (Digitaria ciliaris [7]) | inhibition at 75 g/ha (Monochoria vaginalis [8]) | inhibition at 75 g/ha (Scirpus juncoides [9]) | inhibition at 75 g/ha (Digitaria ciliaris [10]) | inhibition at 75 g/ha (Echinochloa crus-galli)

CC(C)[C@]12C[C@@H](OCc3c(F)cccc3F)[C@](C)(CC1=O)O2 [2-20, (1R,4S,5R)-5-((2,6-difluorobenzyl)oxy)-1-isopropyl-4-methyl-7-oxabicyclo[2.2.1]heptan-2-one]
≥ 80%: pest or weed control at 1200 g/ha [1] | pest or weed control at 1200 g/ha (Scirpus juncoides [2]) | pest or weed control at 1200 g/ha (Monochoria vaginalis [3]) | inhibition at 1200 g/ha [4] | inhibition at 1200 g/ha (Monochoria vaginalis [5]) | inhibition at 1200 g/ha (Scirpus juncoides [6]) | inhibition at 1200 g/ha (Digitaria ciliaris [7]) | inhibition at 75 g/ha (Monochoria vaginalis [8]) | inhibition at 75 g/ha (Scirpus juncoides [9]) | inhibition at 75 g/ha (Digitaria ciliaris [10]) | inhibition at 75 g/ha (Echinochloa crus-galli)

Cc1ccccc1CO[C@@H]1C[C@]2(C(C)C)O[C@@]1(C)C[C@@H]2I [1-741, (1S,2R,4R,5S)-5-iodo-1-methyl-2-[(2-methylphenyl)methoxy]-4-isopropyl-7-oxabicyclo[2.2.1]heptane]
≥ 80%: pest or weed control at 1200 g/ha [1] | pest or weed control at 1200 g/ha (Scirpus juncoides [2]) | pest or weed control at 1200 g/ha (Monochoria vaginalis [3]) | inhibition at 1200 g/ha [4] | inhibition at 1200 g/ha (Monochoria vaginalis [5]) | inhibition at 1200 g/ha (Scirpus juncoides [6]) | inhibition at 1200 g/ha (Digitaria ciliaris [7]) | inhibition at 75 g/ha (Monochoria vaginalis [8]) | inhibition at 75 g/ha (Scirpus juncoides [9]) | inhibition at 75 g/ha (Digitaria ciliaris [10]) | inhibition at 75 g/ha (Echinochloa crus-galli)

Cc1cccc(C)c1CO[C@@H]1C[C@]2(C(C)C)O[C@@]1(C)CC2=O [2-5, (1R,4S,5R)-5-((2,6-dimethylbenzyl)oxy)-1-isopropyl-4-methyl-7-oxabicyclo[2.2.1]heptan-2-one]
≥ 80%: pest or weed control at 1200 g/ha [1] | pest or weed control at 1200 g/ha (Scirpus juncoides [2]) | pest or weed control at 1200 g/ha (Monochoria vaginalis [3]) | inhibition at 1200 g/ha [4] | inhibition at 1200 g/ha (Monochoria vaginalis [5]) | inhibition at 1200 g/ha (Digitaria ciliaris [7]) | inhibition at 75 g/ha (Monochoria vaginalis [8]) | inhibition at 75 g/ha (Scirpus juncoides [9]) | inhibition at 75 g/ha (Digitaria ciliaris [10]) | inhibition at 75 g/ha (Echinochloa crus-galli)

CC(C)[C@]12C[C@@H](OCc3cccs3)[C@](C)(C[C@@H]1Br)O2 [1-721, (1S,2R,4R,5S)-5-bromo-1-methyl-4-isopropyl-2-(thiophen-2-ylmethoxy)-7-oxabicyclo[2.2.1]heptane]
≥ 80%: pest or weed control at 1200 g/ha [1] | pest or weed control at 1200 g/ha (Scirpus juncoides [2]) | pest or weed control at 1200 g/ha (Monochoria vaginalis [3]) | inhibition at 1200 g/ha [4] | inhibition at 1200 g/ha (Monochoria vaginalis [5]) | inhibition at 75 g/ha (Monochoria vaginalis [8]) | inhibition at 75 g/ha (Scirpus juncoides [9]) | inhibition at 75 g/ha (Digitaria ciliaris [10]) | inhibition at 75 g/ha (Echinochloa crus-galli)

CC(C)=CCO[C@@H]1C[C@]2(C(C)C)O[C@@]1(C)C[C@@H]2Br [1-672, (1S,2R,4R,5S)-5-bromo-1-methyl-2-(3-methylbut-2-enoxy)-4-isopropyl-7-oxabicyclo[2.2.1]heptane]
≥ 80%: pest or weed control at 1200 g/ha [1] | pest or weed control at 1200 g/ha (Monochoria vaginalis [3]) | inhibition at 1200 g/ha [4] | inhibition at 1200 g/ha (Monochoria vaginalis [5]) | inhibition at 1200 g/ha (Scirpus juncoides [6]) | inhibition at 1200 g/ha (Digitaria ciliaris [7]) | inhibition at 75 g/ha (Monochoria vaginalis [8]) | inhibition at 75 g/ha (Scirpus juncoides [9]) | inhibition at 75 g/ha (Digitaria ciliaris [10]) | inhibition at 75 g/ha (Echinochloa crus-galli)
